# In ChEMBL document CHEMBL4507282, “Data for DCP probe BI-1950” (2021):
# pKi: −log10 of the molar value.
# Tests used:
# [1] = target: Serotonin 2 (5-HT2) receptor (Rattus norvegicus) (UniProt P30994+P08909+P14842); assay: 5HT2/R Eurofins-Panlabs selectivity data (BI); type: protein assay; conditions: Compound concentration 10.0 uM
# [2] = target: T1, 5-hydroxytryptamine receptor 3A (Homo sapiens) (UniProt P46098); assay: 5HT3/HU Eurofins-Panlabs selectivity data (BI); conditions: Compound concentration 10.0 uM
# T1 sequence (whole entry): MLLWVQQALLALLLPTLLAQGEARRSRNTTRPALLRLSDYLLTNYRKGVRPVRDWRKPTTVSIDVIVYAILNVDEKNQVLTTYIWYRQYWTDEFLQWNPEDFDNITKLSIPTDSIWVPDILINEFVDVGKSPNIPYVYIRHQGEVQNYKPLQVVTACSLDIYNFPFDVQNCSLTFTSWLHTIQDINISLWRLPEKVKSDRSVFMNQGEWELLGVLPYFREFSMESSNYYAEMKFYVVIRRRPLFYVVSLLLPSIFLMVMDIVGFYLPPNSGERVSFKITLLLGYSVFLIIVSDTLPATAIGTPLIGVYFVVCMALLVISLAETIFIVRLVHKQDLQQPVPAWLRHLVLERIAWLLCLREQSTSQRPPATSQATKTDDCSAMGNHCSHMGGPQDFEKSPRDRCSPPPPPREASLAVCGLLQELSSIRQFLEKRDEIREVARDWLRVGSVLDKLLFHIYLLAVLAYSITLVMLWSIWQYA
# [3] = target: Adrenergic receptor alpha-2 (Rattus norvegicus) (UniProt P22086+P19328+P22909); assay: ALPHA2/R Eurofins-Panlabs selectivity data (BI); type: protein assay; conditions: Compound concentration 10.0 uM
# [4] = target: Type-1 angiotensin II receptor (Oryctolagus cuniculus) (UniProt P34976); assay: AT1 Eurofins-Panlabs selectivity data (BI); conditions: Homo sapiens; Compound concentration 10.0 uM
# [5] = target: Sodium/potassium-transporting ATPase subunit alpha-1 (Sus scrofa) (UniProt P05024); assay: ATP NA+/K+PI Eurofins-Panlabs selectivity data (BI); conditions: Compound concentration 10.0 uM
# [6] = target: Beta-2 adrenergic receptor (Rattus norvegicus) (UniProt P10608); assay: BETA/R Eurofins-Panlabs selectivity data (BI); conditions: Compound concentration 10.0 uM
# [7] = target: Voltage-dependent L-type calcium channel subunit alpha-1C (diltiazem site) (Rattus norvegicus, UniProt P22002); assay: CA+/DILSI/RA Eurofins-Panlabs selectivity data (BI); conditions: compound concentration 10 uM, read-out: % Ctrl
# [8] = target: Voltage-dependent N-type calcium channel subunit alpha-1B (Rattus norvegicus) (UniProt Q02294); assay: CA+/N/RA Eurofins-Panlabs selectivity data (BI); conditions: Compound concentration 10.0 uM
# [9] = target: Voltage-dependent L-type calcium channel subunit alpha-1C (phenylalkylamine site) (Rattus norvegicus, UniProt P22002); assay: CA+/PAASITE Eurofins-Panlabs selectivity data (BI); conditions: read-out: % Ctrl
# [10] = target: D(2) dopamine receptor (Homo sapiens) (UniProt P14416); assay: D2L/H Eurofins-Panlabs selectivity data (BI); conditions: Compound concentration 10.0 uM
# [11] = target: D(3) dopamine receptor (Homo sapiens) (UniProt P35462); assay: D3/HU Eurofins-Panlabs selectivity data (BI); conditions: Compound concentration 10.0 uM
# [12] = target: D(1B) dopamine receptor (Homo sapiens) (UniProt P21918); assay: D5/HU Eurofins-Panlabs selectivity data (BI); conditions: Compound concentration 10.0 uM
# [13] = target: Gamma-aminobutyric acid receptor subunit alpha-1 (Rattus norvegicus) (UniProt P62813); assay: GABAACENTR Eurofins-Panlabs selectivity data (BI); conditions: Compound concentration 10.0 uM
# [14] = target: Glutamate receptor ionotropic, NMDA 1 (Rattus norvegicus) (UniProt P35439); assay: GLUTAMAT/R Eurofins-Panlabs selectivity data (BI); conditions: Compound concentration 10.0 uM
# [15] = target: Histamine H1 receptor (Homo sapiens) (UniProt P35367); assay: H1/H Eurofins-Panlabs selectivity data (BI); conditions: Compound concentration 10.0 uM
# [16] = target: Histamine H2 receptor (Homo sapiens) (UniProt P25021); assay: H2/H Eurofins-Panlabs selectivity data (BI); conditions: Compound concentration 10.0 uM
# [17] = target: Histamine H3 receptor (Homo sapiens) (UniProt Q9Y5N1); assay: H3/H Eurofins-Panlabs selectivity data (BI); conditions: Compound concentration 10.0 uM
# [18] = target: Potassium voltage-gated channel subfamily A member 1 (Rattus norvegicus) (UniProt P10499); assay: K+/KA/R Eurofins-Panlabs selectivity data (BI); conditions: Compound concentration 10.0 uM
# [19] = target: ATP-sensitive inward rectifier potassium channel 1 isoform X1 (Mesocricetus auratus) (UniProt A0A1U8CU73); assay: K+/KATP/HA Eurofins-Panlabs selectivity data (BI); conditions: Compound concentration 10.0 uM
# [20] = target: Small conductance calcium-activated potassium channel protein 1 (Rattus norvegicus) (UniProt P70606); assay: K+/SKCA Eurofins-Panlabs selectivity data (BI); conditions: Compound concentration 10.0 uM
# [21] = target: Muscarinic acetylcholine receptor M1 (Rattus norvegicus) (UniProt P08482); assay: MUSCARIN/OTM Eurofins-Panlabs selectivity data (BI); conditions: Compound concentration 10.0 uM
# [22] = target: Opioid receptor (Rattus norvegicus) (UniProt P33533+P34975+P33535); assay: OPIAT/NS Eurofins-Panlabs selectivity data (BI); type: protein assay; conditions: Compound concentration 10.0 uM
# [23] = target: T2, Thromboxane-A synthase (Homo sapiens) (UniProt P24557); assay: THRO SYN(HU) Eurofins-Panlabs selectivity data (BI)
# T2 sequence (whole entry): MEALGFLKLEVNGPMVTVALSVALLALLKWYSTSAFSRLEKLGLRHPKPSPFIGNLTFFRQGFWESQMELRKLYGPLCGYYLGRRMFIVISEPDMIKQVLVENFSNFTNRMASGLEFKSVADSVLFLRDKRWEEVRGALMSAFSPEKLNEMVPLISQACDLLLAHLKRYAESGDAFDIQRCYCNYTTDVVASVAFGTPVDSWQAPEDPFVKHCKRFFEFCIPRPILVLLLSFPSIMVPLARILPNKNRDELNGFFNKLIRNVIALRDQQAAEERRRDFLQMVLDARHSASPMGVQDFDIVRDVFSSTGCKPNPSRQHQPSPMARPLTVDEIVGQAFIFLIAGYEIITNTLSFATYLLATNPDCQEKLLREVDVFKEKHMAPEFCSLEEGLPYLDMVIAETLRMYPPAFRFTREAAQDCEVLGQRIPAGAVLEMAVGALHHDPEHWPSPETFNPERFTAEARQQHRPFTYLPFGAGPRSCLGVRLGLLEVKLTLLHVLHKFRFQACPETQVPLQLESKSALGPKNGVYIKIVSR
# [24] = target: Sodium-dependent noradrenaline transporter (Homo sapiens) (UniProt P23975); conditions: Compound concentration 10.0 uM
# [25] = target: Sigma intracellular receptor 2 (Homo sapiens, UniProt Q5BJF2); assay: GPCRScan assay: inhibition of Sigma 2; design: radioligand conc. used [nm] 5.0, parental cells HEKT
# [26] = target: Muscarinic acetylcholine receptor M1 (Homo sapiens) (UniProt P11229); conditions: Compound concentration 10.0 uM
# [27] = target: Muscarinic acetylcholine receptor M2 (Homo sapiens) (UniProt P08172); conditions: Compound concentration 10.0 uM
# Chain of Muscarinic acetylcholine receptor M2 (Homo sapiens) (P08172 whole entry): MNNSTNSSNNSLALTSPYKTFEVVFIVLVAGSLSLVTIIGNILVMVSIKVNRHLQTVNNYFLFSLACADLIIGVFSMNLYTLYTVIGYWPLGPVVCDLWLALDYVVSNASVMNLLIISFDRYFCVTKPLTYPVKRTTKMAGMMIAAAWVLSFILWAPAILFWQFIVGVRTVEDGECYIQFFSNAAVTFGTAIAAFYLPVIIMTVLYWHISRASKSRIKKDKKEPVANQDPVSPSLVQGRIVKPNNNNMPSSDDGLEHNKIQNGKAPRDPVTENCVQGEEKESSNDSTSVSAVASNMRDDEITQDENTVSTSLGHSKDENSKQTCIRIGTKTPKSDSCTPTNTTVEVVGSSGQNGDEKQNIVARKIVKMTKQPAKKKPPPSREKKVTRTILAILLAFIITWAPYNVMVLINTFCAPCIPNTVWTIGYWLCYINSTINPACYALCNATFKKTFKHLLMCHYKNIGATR
# Chain of Voltage-dependent L-type calcium channel subunit alpha-1C (phenylalkylamine site) (P22002 whole entry): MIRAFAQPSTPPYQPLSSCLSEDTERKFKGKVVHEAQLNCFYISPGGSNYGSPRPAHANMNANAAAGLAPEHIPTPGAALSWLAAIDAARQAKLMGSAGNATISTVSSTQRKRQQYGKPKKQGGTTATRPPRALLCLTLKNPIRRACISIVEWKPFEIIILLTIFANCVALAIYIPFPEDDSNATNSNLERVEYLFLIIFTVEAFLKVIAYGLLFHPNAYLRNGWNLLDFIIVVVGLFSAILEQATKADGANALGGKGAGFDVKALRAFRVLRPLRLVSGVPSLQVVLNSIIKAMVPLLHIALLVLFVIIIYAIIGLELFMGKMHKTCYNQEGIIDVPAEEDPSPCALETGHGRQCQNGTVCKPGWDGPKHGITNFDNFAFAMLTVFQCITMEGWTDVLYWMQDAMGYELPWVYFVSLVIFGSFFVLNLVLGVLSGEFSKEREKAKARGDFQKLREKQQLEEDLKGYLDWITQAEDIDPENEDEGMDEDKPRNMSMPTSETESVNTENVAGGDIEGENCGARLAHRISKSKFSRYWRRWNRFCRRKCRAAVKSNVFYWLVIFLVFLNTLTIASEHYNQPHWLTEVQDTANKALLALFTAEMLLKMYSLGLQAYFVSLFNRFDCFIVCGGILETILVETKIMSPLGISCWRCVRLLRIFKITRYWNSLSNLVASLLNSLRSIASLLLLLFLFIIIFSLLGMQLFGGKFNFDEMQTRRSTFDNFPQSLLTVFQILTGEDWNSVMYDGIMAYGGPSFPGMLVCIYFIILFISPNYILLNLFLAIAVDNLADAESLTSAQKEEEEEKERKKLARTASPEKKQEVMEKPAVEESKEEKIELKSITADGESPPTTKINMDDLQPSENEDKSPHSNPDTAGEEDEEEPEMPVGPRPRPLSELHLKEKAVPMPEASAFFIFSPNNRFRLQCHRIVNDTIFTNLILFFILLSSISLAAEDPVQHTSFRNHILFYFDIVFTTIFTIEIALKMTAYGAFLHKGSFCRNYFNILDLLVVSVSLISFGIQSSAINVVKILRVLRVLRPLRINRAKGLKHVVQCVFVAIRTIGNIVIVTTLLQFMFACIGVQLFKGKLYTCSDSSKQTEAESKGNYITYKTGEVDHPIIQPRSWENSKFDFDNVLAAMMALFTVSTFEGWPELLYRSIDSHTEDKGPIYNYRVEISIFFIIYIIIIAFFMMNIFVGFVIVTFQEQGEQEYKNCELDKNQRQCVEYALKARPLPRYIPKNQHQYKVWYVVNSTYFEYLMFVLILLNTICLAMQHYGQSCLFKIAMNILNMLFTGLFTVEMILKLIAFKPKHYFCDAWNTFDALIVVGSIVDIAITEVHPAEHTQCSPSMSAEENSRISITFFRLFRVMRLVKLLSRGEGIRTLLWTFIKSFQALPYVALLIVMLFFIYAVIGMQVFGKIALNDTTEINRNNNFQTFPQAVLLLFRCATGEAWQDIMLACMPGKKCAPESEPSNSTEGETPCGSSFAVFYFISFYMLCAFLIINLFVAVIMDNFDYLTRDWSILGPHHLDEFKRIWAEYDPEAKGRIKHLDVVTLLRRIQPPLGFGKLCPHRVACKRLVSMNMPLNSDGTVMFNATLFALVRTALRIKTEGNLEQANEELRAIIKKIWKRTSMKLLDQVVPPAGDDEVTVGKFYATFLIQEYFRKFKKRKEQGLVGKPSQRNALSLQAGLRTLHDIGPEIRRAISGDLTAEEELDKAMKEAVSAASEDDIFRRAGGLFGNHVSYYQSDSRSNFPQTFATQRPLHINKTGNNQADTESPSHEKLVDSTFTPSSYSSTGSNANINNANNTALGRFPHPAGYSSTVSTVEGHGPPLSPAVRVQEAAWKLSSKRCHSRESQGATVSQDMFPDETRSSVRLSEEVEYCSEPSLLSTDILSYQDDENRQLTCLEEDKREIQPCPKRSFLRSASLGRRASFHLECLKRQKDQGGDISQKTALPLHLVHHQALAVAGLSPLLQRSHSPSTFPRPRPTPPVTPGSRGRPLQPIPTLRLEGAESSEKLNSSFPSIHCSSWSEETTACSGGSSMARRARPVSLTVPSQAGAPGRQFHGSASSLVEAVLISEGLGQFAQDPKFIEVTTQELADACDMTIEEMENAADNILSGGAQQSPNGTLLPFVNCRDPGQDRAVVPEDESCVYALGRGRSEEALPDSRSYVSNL
# Chain of Sigma intracellular receptor 2 (Q5BJF2 whole entry): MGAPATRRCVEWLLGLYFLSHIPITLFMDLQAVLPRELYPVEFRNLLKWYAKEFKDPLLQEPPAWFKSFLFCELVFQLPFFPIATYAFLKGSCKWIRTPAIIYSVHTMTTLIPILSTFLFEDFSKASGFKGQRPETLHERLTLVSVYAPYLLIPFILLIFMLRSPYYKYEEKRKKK
# Chain of Voltage-dependent N-type calcium channel subunit alpha-1B (Rattus norvegicus) (Q02294 whole entry, looked up): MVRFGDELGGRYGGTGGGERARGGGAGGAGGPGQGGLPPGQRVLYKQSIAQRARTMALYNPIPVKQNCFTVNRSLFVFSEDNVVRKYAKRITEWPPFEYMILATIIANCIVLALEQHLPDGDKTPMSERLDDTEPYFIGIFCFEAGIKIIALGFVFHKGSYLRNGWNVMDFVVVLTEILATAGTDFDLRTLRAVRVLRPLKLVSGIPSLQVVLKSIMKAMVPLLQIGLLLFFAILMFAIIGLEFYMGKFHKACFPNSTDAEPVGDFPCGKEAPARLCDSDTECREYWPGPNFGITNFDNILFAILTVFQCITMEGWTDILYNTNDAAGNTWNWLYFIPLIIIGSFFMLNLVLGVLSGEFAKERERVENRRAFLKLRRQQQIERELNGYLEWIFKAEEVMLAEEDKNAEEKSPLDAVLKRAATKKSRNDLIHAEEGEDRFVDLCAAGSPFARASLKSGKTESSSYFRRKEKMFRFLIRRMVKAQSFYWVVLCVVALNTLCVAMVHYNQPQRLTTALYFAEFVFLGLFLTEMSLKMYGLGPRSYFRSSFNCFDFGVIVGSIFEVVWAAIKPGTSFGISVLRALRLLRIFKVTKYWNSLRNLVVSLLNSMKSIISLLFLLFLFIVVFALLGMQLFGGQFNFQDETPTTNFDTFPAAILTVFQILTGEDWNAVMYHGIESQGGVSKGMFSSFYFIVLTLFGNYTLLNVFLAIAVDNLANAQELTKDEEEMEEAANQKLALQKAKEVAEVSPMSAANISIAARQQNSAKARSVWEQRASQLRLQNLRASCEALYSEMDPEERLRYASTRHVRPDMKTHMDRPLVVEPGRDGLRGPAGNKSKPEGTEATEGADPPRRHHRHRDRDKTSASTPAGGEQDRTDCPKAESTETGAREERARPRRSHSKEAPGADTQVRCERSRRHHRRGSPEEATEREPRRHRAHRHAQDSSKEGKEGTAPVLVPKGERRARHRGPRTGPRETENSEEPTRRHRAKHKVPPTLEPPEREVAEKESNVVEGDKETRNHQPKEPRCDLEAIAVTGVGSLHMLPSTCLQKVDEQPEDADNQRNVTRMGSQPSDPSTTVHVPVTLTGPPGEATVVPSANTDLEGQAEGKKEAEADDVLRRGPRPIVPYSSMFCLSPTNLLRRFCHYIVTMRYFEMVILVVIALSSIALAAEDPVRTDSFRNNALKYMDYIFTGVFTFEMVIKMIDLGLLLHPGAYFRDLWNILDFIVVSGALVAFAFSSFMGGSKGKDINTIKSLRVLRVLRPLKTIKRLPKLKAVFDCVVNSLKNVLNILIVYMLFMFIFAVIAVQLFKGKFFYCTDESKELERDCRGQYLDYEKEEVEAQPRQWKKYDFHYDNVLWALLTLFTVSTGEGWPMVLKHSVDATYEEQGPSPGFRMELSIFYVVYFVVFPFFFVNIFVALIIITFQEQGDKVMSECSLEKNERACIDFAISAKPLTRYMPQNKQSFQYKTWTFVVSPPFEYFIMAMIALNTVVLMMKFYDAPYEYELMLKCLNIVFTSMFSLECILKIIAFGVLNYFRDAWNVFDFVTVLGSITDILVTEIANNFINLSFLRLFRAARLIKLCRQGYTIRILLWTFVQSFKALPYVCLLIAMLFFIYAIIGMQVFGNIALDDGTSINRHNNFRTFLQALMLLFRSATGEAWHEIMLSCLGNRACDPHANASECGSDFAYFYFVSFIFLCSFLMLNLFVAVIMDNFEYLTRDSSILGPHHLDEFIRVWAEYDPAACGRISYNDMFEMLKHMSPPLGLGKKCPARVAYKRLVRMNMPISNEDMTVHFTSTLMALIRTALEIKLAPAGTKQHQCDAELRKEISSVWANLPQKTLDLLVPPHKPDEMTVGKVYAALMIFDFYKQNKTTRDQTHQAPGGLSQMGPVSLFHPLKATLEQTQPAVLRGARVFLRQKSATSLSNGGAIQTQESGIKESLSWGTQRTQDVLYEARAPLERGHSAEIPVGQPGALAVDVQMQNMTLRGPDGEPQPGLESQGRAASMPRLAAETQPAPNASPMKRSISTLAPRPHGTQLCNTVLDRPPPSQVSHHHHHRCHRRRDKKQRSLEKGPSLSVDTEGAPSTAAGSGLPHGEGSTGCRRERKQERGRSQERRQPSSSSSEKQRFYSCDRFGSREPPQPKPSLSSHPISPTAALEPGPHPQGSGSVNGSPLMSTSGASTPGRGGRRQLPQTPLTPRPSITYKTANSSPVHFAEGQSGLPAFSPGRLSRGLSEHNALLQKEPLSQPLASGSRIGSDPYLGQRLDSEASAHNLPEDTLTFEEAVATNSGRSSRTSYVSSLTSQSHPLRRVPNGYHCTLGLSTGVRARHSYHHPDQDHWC
structure (smiles),measurement,setting,value
C[C@H](NC(=O)c1cnc2n1[C@](C)(Cc1ccc(C#N)cc1)C(=O)N2c1cc(Cl)c(F)c(Cl)c1)C(=O)NC1(c2ccccn2)CC1 [BI 1950],residual activity,[1],98%
same,residual activity,[2],134%
same,residual activity,[3],88%
same,residual activity,[4],90%
same,residual activity,[5],109%
same,residual activity,[6],84%
same,activity at 10 µM,[7],69% (not active)
same,residual activity,[8],102%
same,activity at 0.03 µM,[9]; compound concentration 0.03 uM,109% (not active)
same,activity at 0.1 µM,[9]; compound concentration 0.1 uM,110% (not active)
same,activity at 0.3 µM,[9]; compound concentration 0.3 uM,102% (not active)
same,activity at 1 µM,[9]; compound concentration 1 uM,86% (not active)
same,activity at 3 µM,[9]; compound concentration 3 uM,76% (not active)
same,activity at 10 µM,[9]; compound concentration 10 uM,49.5%
same,residual activity,[10],115%
same,residual activity,[11],88%
same,residual activity,[12],86%
same,residual activity,[13],99%
same,residual activity,[14],92%
same,residual activity,[15],109%
same,residual activity,[16],74%
same,residual activity,[17],98%
same,residual activity,[18],92%
same,residual activity,[19],107%
same,residual activity,[20],108%
same,residual activity,[21],77%
same,residual activity,[22],78%
same,residual activity,[23]; Compound concentration 0.03 uM,94%
same,residual activity,[23]; Compound concentration 0.1 uM,93%
same,residual activity,[23]; Compound concentration 0.3 uM,91%
same,residual activity,[23]; Compound concentration 1.0 uM,82%
same,residual activity,[23]; Compound concentration 3.0 uM,74%
same,residual activity,[23]; Compound concentration 10.0 uM,47%
same,inhibition,[24],-2.81%
C[C@@]1(Cc2ccc(C#N)cc2)C(=O)N(c2cc(Cl)cc(Cl)c2)c2ncc(C(=O)NC3(c4nc(C5CCC5)no4)CC3)n21 [BI 9446],pKi,[25]; read-out: Ki,6.25
same,Ki,[25]; read-out: pKi (converted),507 nM
same,inhibition,[26],-8.37%
same,inhibition,[27],-8.35%
